Measured values published in patent US10159678B2, “Methods to decrease susceptibility to asthmatic bronchoconstriction” (Cornell University, priority 2012, dated 2018).

Legend:
isolated bronchial rings = test: Myograph contractile response of bronchial rings isolated from myriocin-treated mice; format: in vivo; settings: rings isolated from mice given myriocin (20 μg) intranasally; dose-dependent manner; FIG. 3C, 3D
Procedure: To directly assess bronchial reactivity bronchi were dissected from myriocin treated mice, Sptlc2^+/− or naïve mice, and mounted on hooks in a multiwire myograph system (DMT, Ann Arbor, Mich.) where they were kept at a resting tension of 200-250 mg in Krebs Henseleit (KH) solution at 37° C. (95% O2, 5% CO2). In addition, bronchial rings from naïve mice were bathed in myriocin (10 μM) for 3 h in the myograph before analysis. Mechanical forces were measured isometrically with force transducers interfaced to a data acquisition system (ADInstruments, Colorado Springs, Colo.) and analyzed with LabChart6Pro for Windows. Potassium (80 mM) was used to achieve maximum contraction and methacholine (0.01-10 μM) was added 30 min after washout of the K^+ solution. Contractile responses were measured as percentage of the response to K^+.

[1] = system: lung sphingolipid composition; test: Lung sphingolipid composition by UPLC-MS/MS after intranasal myriocin; format: in vivo, BALB/c mice
Procedure: (§1) Animal studies described herein were conducted under protocols approved by the Institutional Animal Care and Use Committee of Weill Cornell Medical College. Female BALB/c mice, obtained from Taconic Farms (Tarrytown, N.Y.). Animals were housed under specific pathogen-free conditions and used at 6 to 8 weeks of age. Myriocin (Enzo Life Sciences, Plymouth Meeting, Pa.) was freshly prepared from a 10 mM stock solution to a 1 mM or 100 μM solution in 0.9% saline and 0.05% fatty acid free bovine serum albumin and 50 μl were administered intranasally. Control animals received the vehicle solution (1% DMSO in 0.9% saline, […] BSA) or were naïve. Three hours later the animals underwent pulmonary function testing and were sacrificed. Heterozygous SPT-deficient mice (Sptlc2^+/−) or homozygous controls (Sptlc2^+/+) were bred, identified by genotyping using procedures like those described by Hojjati et al. (2005) and used at 6-8 weeks of age.
Lungs were harvested following perfusion with phosphate-buffered saline (PBS, Invitrogen, Carlsbad, Calif.) containing 0.6 mM ethylenediamine tetra acetic acid dipotassium salt dehydrate (EDTA, Invitrogen) via the right ventricle to remove blood cells from the pulmonary circulation. The lungs were then homogenized in normal PBS. De-novo sphingolipid synthesis was assessed by evaluating incorporation of ^3H-serine (24.1 Ci/mmol, Perkin Elmer (Boston, Mass.) into ceramide and sphingosine. Sphingolipid synthesis through the recycling pathway was assessed by evaluating incorporation of ^3H-sphingosine (18.2 Ci/mmol, Perkin Elmer (Boston, Mass.) into ceramide and sphingomyelin. In both assays, equal amounts of fresh lung homogenates were incubated for 30 min at 37° C. with 2 μl of the radioactive tracer, followed by lyophilization to determine dry weight, lipid extraction with chloroform/methanol/water (1:1:0.9). The organic phase was evaporated, dissolved in 50 μl chloroform/methanol (1:1) spotted on […] chromatography plates (TLC) (Merck Silica gel 60, Darmstadt, Germany) and chromatographed for 25 min with chloroform-methanol-ammonium hydroxide (65:25:4 v/v). Ceramides, sphingomyelin, phosphatidylserine, sphinganine and sphingosine, all dissolved at 1 μg/μl were run as standards. The lipids were identified according to their Rf values after visualization in an iodine vapor tank. The TLC plate was cut at the corresponding lipid spot, mixed with scintillation fluid (Ultima Gold, Packard Instrument Company, CT) and analyzed in a scintillation counter (Perkin Elmer Wallac, Gaithersburg, Md.). Results are calculated as dpm/mg protein.
Sphinganine, sphingosine, sphinganine-1-phosphate, sphingosine-1-phosphate, ceramides (Cer16, Cer18, Cer20, Cer22, Cer24:1, Cer24) were quantified in lung homogenates by ultra-performance liquid chromatography-tandem mass spectrometry (UPLC-MS/MS), on a Waters Xevo, equipped with a Waters BEH Phenyl UPLC Column (ACQUITY UPLC BEH Phenyl Column, 3.0×100 mm, 1.7 μm and a ACQUITY BEH Phenyl VanGuard Pre-column, 2.1×5 mm, 1.7 μm in the Columbia University Lipid Core as reported by Shaner et al. (2009) with minor modifications. […] of an internal standard mix (Avanti Polar Lipids, Mix 1) in ethanol, 0.5 ml methanol and 0.25 ml chloroform were added to the lyophilized lung homogenates and sonicated for 12 h at 48° C. After centrifugation at 10,000 g for 5 min, the supernatant was evaporated in a glass tube and resuspended in 100 μl methanol. 10 μl were injected into the UPLC-MS/MS. Results are calculated as pmol/mg.
Myriocin is a potent and specific inhibitor of SPT that affects SPT independent of orm. To assess if direct administration of myriocin to the respiratory tract affects pulmonary sphingolipid synthesis, the lung sphingolipid composition was determined by ultra-performance liquid chromatography-tandem mass spectrometry (UPLC-MS/MS) 3 h following intranasal administration of myriocin.

BALB/c mice = test: Lung mechanics and airway reactivity to inhaled methacholine after intranasal myriocin; format: in vivo; settings: 3 h after intranasal myriocin (2 or 20 μg)
Procedure: as §1, with “Three hours later the animals underwent pulmonary function testing and were sacrificed. Heterozygous SPT-deficient mice (Sptlc2^+/−) or homozygous controls (Sptlc2^+/+) were bred, identified by genotyping using procedures like those described by Hojjati et al. (2005) and used at 6-8 weeks of age.” left out
Mice were anaesthetized with pentobarbital (100 mg/kg; American Pharmaceutical Partners, Los Angeles, Calif.), tracheostomized and mechanically ventilated at a rate of 150 breaths/min, a tidal volume of 10 ml/kg and positive end-expiratory pressure of 2-3 cm H2O using a computer-controlled animal ventilator (Sireq, Montreal, Canada). […] Rn and G were also assessed following increasing doses of methacholine (3.125, 12.5 and 50 mg/ml).
Experiments were then performed to assess if administration of myriocin directly to the respiratory tract affects pulmonary function. […] Airway resistance (Rn) in response to increasing doses of inhaled methacholine was determined 3 h after myriocin administration. […]

## CCCCCCC(=O)CCCCCC/C=C/C[C@@H](O)[C@H](O)[C@@](N)(CO)C(=O)O [myriocin]
Isolated bronchial rings
  contractile responses of bronchial rings to methacholine: increased
[1]; 3 h following intranasal administration of myriocin (20 μg), FIG. 1A
  sphinganine in the lung: reduced
[1]; 3 h following intranasal myriocin (20 μg), FIG. 1B
  sphingosine levels in the lung: not significantly decreased
[1]; 3 h following intranasal myriocin (20 μg), FIG. 1C
  sphinganine-1P (Sa1P) levels in the lung: not significantly decreased
[1]; 3 h following intranasal myriocin (20 μg), FIG. 1D
  sphingosine-1P (S1P) levels in the lung: not significantly decreased
[1]; 3 h following intranasal myriocin (20 μg), FIG. 1E-1G
  sum of ceramides (C14, C16, C18, C20, C22, C24, C24:1) in the lung: decreased
[1]; 3 h following intranasal myriocin, FIGS. 1F and 1G
  certain individual ceramides in the lung: individually decreased
BALB/c mice; FIG. 3A
  airway reactivity (airway resistance Rn in response to inhaled methacholine): increased
BALB/c mice; FIG. 3B
  Baseline lung mechanical properties, such as static compliance: not altered
